Measurements from ChEMBL document CHEMBL3526097, “Preclinical disposition of GDC-0973 and prospective and retrospective analysis of human dose and efficacy predictions” (Drug Metab Dispos, 2012).
Each block holds one compound with its values, some of them ahead of it.

Tests used:
[1] = Percentage unbound in human plasma at 5 uM after 5 hrs by equilibrium dialysis; type: ADME, cell-free
[2] = Percentage unbound in rat plasma at 10 uM after 5 hrs by equilibrium dialysis; type: ADME, cell-free
[3] = Percentage unbound in rat plasma at 5 uM after 5 hrs by equilibrium dialysis; type: ADME, cell-free
[4] = Drug excretion in bile duct-intact Beagle dog feces at 30 mg/kg, po after 72 hrs by liquid scintillation counting; type: ADME, organism-based, Canis lupus familiaris; parameters: dose 30 mg/kg, route oral; conditions: in vivo
[5] = Ratio of drug level in blood to plasma in beagle dog at 1 uM after 30 mins; type: ADME, Canis lupus familiaris
[6] = target: T1, Albumin (Homo sapiens, UniProt P02768); assay: Percentage unbound in human serum albumin at 1 uM after 5 hrs by equilibrium dialysis; type: ADME
[7] = Drug excretion in bile duct-cannulated Sprague-Dawley rat bile at 30 mg/kg, po after 48 hrs by liquid scintillation counting; type: ADME, organism-based; parameters: dose 30 mg/kg, route oral; conditions: in vivo
[8] = Percentage unbound in human alpha-1-acid glycoprotein at 10 uM after 5 hrs by equilibrium dialysis; type: ADME
[9] = target: T1, Albumin; assay: Percentage unbound in human serum albumin at 5 uM after 5 hrs by equilibrium dialysis; type: ADME
[10] = Percentage unbound in human alpha-1-acid glycoprotein at 5 uM after 5 hrs by equilibrium dialysis; type: ADME
[11] = Drug uptake in Long-Evans rat melanin containing tissue at 30 mg/kg, po after 72 hrs by autoradiography; type: ADME, organism-based; parameters: dose 30 mg/kg, route oral; conditions: in vivo
[12] = system: Liver; assay: Drug uptake in Long-Evans rat liver at 30 mg/kg, po after 2 hrs by autoradiography; type: ADME, organism-based; parameters: dose 30 mg/kg, route oral; conditions: in vivo
[13] = Drug excretion in bile duct-intact Beagle dog urine at 30 mg/kg, po after 72 hrs by liquid scintillation counting; type: ADME, organism-based, Canis lupus familiaris; parameters: dose 30 mg/kg, route oral; conditions: in vivo
[14] = Ratio of drug level in blood to plasma in cynomolgus monkey at 1 uM after 30 mins; type: ADME, Macaca fascicularis
[15] = Drug excretion in bile duct-intact Sprague-Dawley rat feces at 30 mg/kg, po after 48 hrs by liquid scintillation counting; type: ADME, organism-based; parameters: dose 30 mg/kg, route oral; conditions: in vivo
[16] = system: Adrenal gland; assay: Drug uptake in Long-Evans rat adrenal gland at 30 mg/kg, po after 2 hrs by autoradiography; type: ADME, organism-based; parameters: dose 30 mg/kg, route oral; conditions: in vivo
[17] = Percentage unbound in rat plasma at 1 uM after 5 hrs by equilibrium dialysis; type: ADME, cell-free
[18] = Ratio of drug level in blood to plasma in Sprague-Dawley rat at 10 uM after 30 mins; type: ADME
[19] = Percentage unbound in mouse plasma at 10 uM after 5 hrs by equilibrium dialysis; type: ADME, cell-free
[20] = Percentage unbound in human alpha-1-acid glycoprotein at 1 uM after 5 hrs by equilibrium dialysis; type: ADME
[21] = system: Liver; assay: Drug uptake in Long-Evans rat liver at 30 mg/kg, po after 72 hrs by autoradiography; type: ADME, organism-based; parameters: dose 30 mg/kg, route oral; conditions: in vivo
[22] = Percentage unbound in human plasma at 10 uM after 5 hrs by equilibrium dialysis; type: ADME, cell-free
[23] = Ratio of drug level in blood to plasma in human at 10 uM after 30 mins; type: ADME
[24] = system: Lung; assay: Drug uptake in Long-Evans rat lung at 30 mg/kg, po after 2 hrs by autoradiography; type: ADME, organism-based; parameters: dose 30 mg/kg, route oral; conditions: in vivo
[25] = Ratio of drug level in blood to plasma in Sprague-Dawley rat at 5 uM after 30 mins; type: ADME
[26] = Percentage unbound in cynomolgus monkey plasma at 1 uM after 5 hrs by equilibrium dialysis; type: ADME, cell-free, Macaca fascicularis
[27] = Drug excretion in bile duct-cannulated Beagle dog bile at 30 mg/kg, po after 168 hrs by liquid scintillation counting; type: ADME, organism-based, Canis lupus familiaris; parameters: dose 30 mg/kg, route oral; conditions: in vivo
[28] = Ratio of drug level in blood to plasma in CD1 mouse at 10 uM after 30 mins; type: ADME
[29] = Percentage unbound in human plasma at 1 uM after 5 hrs by equilibrium dialysis; type: ADME, cell-free
[30] = Ratio of drug level in blood to plasma in cynomolgus monkey at 5 uM after 30 mins; type: ADME, Macaca fascicularis
[31] = Drug excretion in bile duct-intact Sprague-Dawley rat urine at 30 mg/kg, po after 48 hrs by liquid scintillation counting; type: ADME, organism-based; parameters: dose 30 mg/kg, route oral; conditions: in vivo
[32] = Percentage unbound in mouse plasma at 5 uM after 5 hrs by equilibrium dialysis; type: ADME, cell-free
[33] = Ratio of drug level in blood to plasma in Sprague-Dawley rat at 1 uM after 30 mins; type: ADME
[34] = Percentage unbound in cynomolgus monkey plasma at 10 uM after 5 hrs by equilibrium dialysis; type: ADME, cell-free, Macaca fascicularis
[35] = system: Large intestine; assay: Drug uptake in Long-Evans rat large intestine at 30 mg/kg, po after 2 hrs by autoradiography; type: ADME, organism-based; parameters: dose 30 mg/kg, route oral; conditions: in vivo
[36] = Ratio of drug level in blood to plasma in CD1 mouse at 5 uM after 30 mins; type: ADME
[37] = system: Kidney; assay: Drug uptake in Long-Evans rat kidney at 30 mg/kg, po after 72 hrs by autoradiography; type: ADME, organism-based; parameters: dose 30 mg/kg, route oral; conditions: in vivo
[38] = Ratio of drug level in blood to plasma in CD1 mouse at 1 uM after 30 mins; type: ADME
[39] = Ratio of drug level in blood to plasma in human at 5 uM after 30 mins; type: ADME
[40] = target: T1, Albumin; assay: Percentage unbound in human serum albumin at 10 uM after 5 hrs by equilibrium dialysis; type: ADME
[41] = Percentage unbound in dog plasma at 10 uM after 5 hrs by equilibrium dialysis; type: ADME, cell-free, Canis lupus familiaris
[42] = Percentage unbound in cynomolgus monkey plasma at 5 uM after 5 hrs by equilibrium dialysis; type: ADME, cell-free, Macaca fascicularis
[43] = Ratio of drug level in blood to plasma in beagle dog at 10 uM after 30 mins; type: ADME, Canis lupus familiaris
[44] = Ratio of drug level in blood to plasma in cynomolgus monkey at 10 uM after 30 mins; type: ADME, Macaca fascicularis
[45] = Drug uptake in Long-Evans rat lacrimal gland at 30 mg/kg, po after 2 hrs by autoradiography; type: ADME, organism-based, Lachrymal gland; parameters: dose 30 mg/kg, route oral; conditions: in vivo
[46] = Ratio of drug level in blood to plasma in human at 1 uM after 30 mins; type: ADME
[47] = Percentage unbound in mouse plasma at 1 uM after 5 hrs by equilibrium dialysis; type: ADME, cell-free
[48] = Percentage unbound in dog plasma at 1 uM after 5 hrs by equilibrium dialysis; type: ADME, cell-free, Canis lupus familiaris
[49] = Percentage unbound in dog plasma at 5 uM after 5 hrs by equilibrium dialysis; type: ADME, cell-free, Canis lupus familiaris
[50] = system: Intestine; assay: Drug uptake in Long-Evans rat intestine at 30 mg/kg, po after 72 hrs by autoradiography; type: ADME, organism-based; parameters: dose 30 mg/kg, route oral; conditions: in vivo
[51] = system: Cerebrum; assay: Drug uptake in Long-Evans rat cerebrum at 30 mg/kg, po after 4 hrs by autoradiography; type: ADME, organism-based; parameters: dose 30 mg/kg, route oral; conditions: in vivo
[52] = Ratio of drug level in blood to plasma in beagle dog at 5 uM after 30 mins; type: ADME, Canis lupus familiaris
[53] = Efflux ratio of permeability from […] side in MDCK1 cells expressing MDR1 at 10 uM after 2 hrs by LC-MS/MS analysis; type: ADME, cell-based, Canis lupus familiaris; conditions: dog, mdck1, 2 h

T1 sequence (P02768 whole entry): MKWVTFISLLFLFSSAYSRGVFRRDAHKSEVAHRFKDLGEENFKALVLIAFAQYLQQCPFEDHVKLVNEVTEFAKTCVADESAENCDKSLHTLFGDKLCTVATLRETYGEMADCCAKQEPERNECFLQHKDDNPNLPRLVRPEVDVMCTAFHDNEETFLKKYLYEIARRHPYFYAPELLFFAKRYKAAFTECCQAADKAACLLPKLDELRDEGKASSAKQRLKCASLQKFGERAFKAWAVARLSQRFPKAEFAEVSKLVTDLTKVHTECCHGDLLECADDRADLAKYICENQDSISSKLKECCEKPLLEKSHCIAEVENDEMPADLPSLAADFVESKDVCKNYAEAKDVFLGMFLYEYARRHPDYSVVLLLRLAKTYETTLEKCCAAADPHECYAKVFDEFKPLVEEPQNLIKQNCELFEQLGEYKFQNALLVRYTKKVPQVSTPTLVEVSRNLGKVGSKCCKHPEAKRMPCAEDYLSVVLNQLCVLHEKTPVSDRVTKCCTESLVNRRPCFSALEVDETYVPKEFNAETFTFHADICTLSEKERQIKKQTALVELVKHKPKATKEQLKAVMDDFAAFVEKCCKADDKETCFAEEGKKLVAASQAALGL

fraction unbound at 5 h, 5 µM [1]: 0.065 | fraction unbound at 5 h, 10 µM [2]: 0.037 | fraction unbound at 5 h, 5 µM [3]: 0.035 | Drug excretion [4]: 80% | blood plasma ratio at 0.5 h, 1 µM [5]: 0.632 | fraction unbound at 5 h, 1 µM [6]: 0.469 | Drug excretion [7]: 74% | fraction unbound at 5 h, 10 µM [8]: 0.053 | fraction unbound at 5 h, 5 µM [9]: 0.408 | fraction unbound at 5 h, 5 µM [10]: 0.042 | Drug uptake [11]: Active | Drug uptake [12]: Active | Drug excretion [13]: 6.3% | blood plasma ratio at 0.5 h, 1 µM [14]: 1.57 | Drug excretion [15]: 85% | Drug uptake [16]: Active | fraction unbound at 5 h, 1 µM [17]: 0.028 | blood plasma ratio at 0.5 h, 10 µM [18]: 1.51 | fraction unbound at 5 h, 10 µM [19]: 0.033 | fraction unbound at 5 h, 1 µM [20]: 0.044 | Drug uptake [21]: Active | fraction unbound at 5 h, 10 µM [22]: 0.058 | blood plasma ratio at 0.5 h, 10 µM [23]: 1.05 | Drug uptake [24]: Active | blood plasma ratio at 0.5 h, 5 µM [25]: 1.37 | fraction unbound at 5 h, 1 µM [26]: 0.045 | Drug excretion [27]: 65% | blood plasma ratio at 0.5 h, 10 µM [28]: 1.27 | fraction unbound at 5 h, 1 µM [29]: 0.052 | blood plasma ratio at 0.5 h, 5 µM [30]: 1.64 | Drug excretion [31]: 2.2% | fraction unbound at 5 h, 5 µM [32]: 0.034 | blood plasma ratio at 0.5 h, 1 µM [33]: 1.36 | fraction unbound at 5 h, 10 µM [34]: 0.048 | Drug uptake [35]: Active | blood plasma ratio at 0.5 h, 5 µM [36]: 1.19 | Drug uptake [37]: Active | blood plasma ratio at 0.5 h, 1 µM [38]: 1.16 | blood plasma ratio at 0.5 h, 5 µM [39]: 0.945 | fraction unbound at 5 h, 10 µM [40]: 0.408 | fraction unbound at 5 h, 10 µM [41]: 0.014 | fraction unbound at 5 h, 5 µM [42]: 0.044 | blood plasma ratio at 0.5 h, 10 µM [43]: 0.936 | blood plasma ratio at 0.5 h, 10 µM [44]: 1.82 | Drug uptake [45]: Active | blood plasma ratio at 0.5 h, 1 µM [46]: 0.933 | fraction unbound at 5 h, 1 µM [47]: 0.041 | fraction unbound at 5 h, 1 µM [48]: 0.007 | fraction unbound at 5 h, 5 µM [49]: 0.012 | Drug uptake [50]: Active | Drug uptake [51]: Active | blood plasma ratio at 0.5 h, 5 µM [52]: 0.752
SMILES: O=C(c1ccc(F)c(F)c1N[14c]1[14cH][14cH][14c](I)[14cH][14c]1F)N1CC(O)([C@@H]2CCCCN2)C1

Ratio [53]: 72
SMILES: C[C@H]1O[C@@H](O[C@H]2[C@@H](O)C[C@H](O[C@H]3[C@@H](O)C[C@H](O[C@H]4CC[C@@]5(C)[C@H](CC[C@@H]6[C@@H]5C[C@@H](O)[C@]5(C)[C@@H](C7=CC(=O)OC7)CC[C@]65O)C4)O[C@@H]3C)O[C@@H]2C)C[C@H](O)[C@@H]1O [DIGOXIN]
